Results from ChEMBL document CHEMBL3400045, “Synthesis and ABCG2 inhibitory evaluation of 5-N-acetylardeemin derivatives” (Bioorg Med Chem, 2015).

Assays:
Assay type in all cases: cell-based; call rule not given here
ABCG2 [1] = molecular target: T1, ABCG2 (Homo sapiens, UniProt Q9UNQ0); experiment: Inhibition of ABCG2 (unknown origin) transfected in Flp-In-293 cells assessed as inhibition of Hoechst 33342 efflux measured as inhibition ratio after 90 mins by flow cytometry; design: concentration or dose not given beside the values; settings: Flp-In-293 cells transfected with ABCG2, probe Hoechst 33342
T1 sequence (Q9UNQ0 whole entry): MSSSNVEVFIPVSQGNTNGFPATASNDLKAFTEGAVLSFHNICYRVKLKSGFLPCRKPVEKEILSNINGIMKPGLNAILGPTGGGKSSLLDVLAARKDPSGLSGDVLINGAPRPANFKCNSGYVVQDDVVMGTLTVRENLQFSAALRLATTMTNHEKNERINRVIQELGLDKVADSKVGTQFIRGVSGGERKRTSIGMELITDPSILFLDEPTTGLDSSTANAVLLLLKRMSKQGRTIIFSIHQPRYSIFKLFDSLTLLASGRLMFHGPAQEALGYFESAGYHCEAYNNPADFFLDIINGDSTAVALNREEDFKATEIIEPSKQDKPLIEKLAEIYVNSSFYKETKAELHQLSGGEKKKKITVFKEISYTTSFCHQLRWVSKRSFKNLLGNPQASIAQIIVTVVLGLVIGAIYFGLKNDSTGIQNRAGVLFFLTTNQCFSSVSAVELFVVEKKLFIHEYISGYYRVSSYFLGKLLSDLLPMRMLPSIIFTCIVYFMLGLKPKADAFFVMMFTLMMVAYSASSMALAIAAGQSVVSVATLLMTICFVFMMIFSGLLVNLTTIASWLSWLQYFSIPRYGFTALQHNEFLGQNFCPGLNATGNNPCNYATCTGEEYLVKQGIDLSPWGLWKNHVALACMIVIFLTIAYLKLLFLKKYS

[2] = molecular target: T2, Broad substrate specificity ATP-binding cassette transporter ABCG2 (Homo sapiens, UniProt Q9UNQ0); experiment: (§1) Inhibition of ABCG2 (unknown origin) transfected in Flp-In-293 cells assessed as inhibition of Hoechst 33342 efflux after 90 mins by flow cytometry; settings: 1.5 h
T2 sequence (Q9UNQ0 whole entry): T1 sequence (Q9UNQ0 whole entry)

ABCG2 [3] = molecular target: T1, ABCG2; experiment: as §1; settings: Flp-In-293 cells transfected with ABCG2, probe Hoechst 33342

inhibition at 1.5 h (ABCG2 [1]) [%] | inhibition (INH) [2] | inhibition at 1.5 h (ABCG2 [3]) [%] | SMILES
64.5 | Active | – | C=CC(C)(C)[C@@]12C[C@H]3c4nc5ccc(Br)cc5c(=O)n4[C@H](C)C(=O)N3[C@@H]1N(C(C)=O)c1ccccc12
– | Active | – | C=CC(C)(C)[C@@]12C[C@H]3c4nc5cc(Br)ccc5c(=O)n4[C@H](C)C(=O)N3[C@@H]1N(C(C)=O)c1ccccc12
– | Active | – | C=CC(C)(C)[C@@]12C[C@H]3c4nc5ccc(OC)cc5c(=O)n4[C@H](C)C(=O)N3[C@@H]1N(C(C)=O)c1ccccc12
– | Active | – | C=CC(C)(C)[C@@]12C[C@H]3c4nc5ccc(C#N)cc5c(=O)n4[C@H](C)C(=O)N3[C@@H]1N(C(C)=O)c1ccccc12
– | Active | – | C=CC(C)(C)[C@@]12C[C@H]3c4nc5ccc(-c6ccccc6)cc5c(=O)n4[C@H](C)C(=O)N3[C@@H]1N(C(C)=O)c1ccccc12
– | Active | – | C=CC(C)(C)[C@@]12C[C@H]3c4nc5ccccc5c(=O)n4[C@H](C)C(=O)N3[C@@H]1N(C(C)=O)c1ccc(-c3ccc(OC)cc3)cc12

More lines, now with the values behind:

SMILES | inhibition at 1.5 h (ABCG2 [1]) [%] | inhibition (INH) [2] | inhibition at 1.5 h (ABCG2 [3]) [%]
C=CC(C)(C)[C@@]12C[C@H]3c4nc5ccccc5c(=O)n4[C@H](C)C(=O)N3[C@@H]1N(C(C)=O)c1ccccc12 | 21.8 | – | –
C=CC(C)(C)[C@@]12C[C@H]3c4nc5ccc(F)cc5c(=O)n4[C@H](C)C(=O)N3[C@@H]1N(C(C)=O)c1ccccc12 | 34.6 | Active | –
C=CC(C)(C)[C@@]12C[C@H]3c4nc5ccc(Cl)cc5c(=O)n4[C@H](C)C(=O)N3[C@@H]1N(C(C)=O)c1ccccc12 | 66.8 | Active | –
C=CC(C)(C)[C@@]12C[C@H]3c4nc5ccc(I)cc5c(=O)n4[C@H](C)C(=O)N3[C@@H]1N(C(C)=O)c1ccccc12 | 35.4 | Active | –
C=CC(C)(C)[C@@]12C[C@H]3c4nc5ccccc5c(=O)n4[C@H](C)C(=O)N3[C@@H]1N(C(C)=O)c1ccc(Br)cc12 | – | Active | –
C=CC(C)(C)[C@@]12C[C@H]3c4nc5ccccc5c(=O)n4[C@H](C)C(=O)N3[C@@H]1N(C(C)=O)c1ccc(C3CCCCC3)cc12 | – | Active | –
C=CC(C)(C)[C@@]12C[C@H]3c4nc5ccccc5c(=O)n4[C@H](C)C(=O)N3[C@@H]1N(C(C)=O)c1ccc(-c3ccccc3)cc12 | – | Active | –
C=CC(C)(C)[C@@]12C[C@H]3c4nc5ccccc5c(=O)n4[C@H](C)C(=O)N3[C@@H]1N(C(C)=O)c1ccc(-c3ccc(C)cc3)cc12 | – | Active | –
C=CC(C)(C)[C@@]12C[C@H]3c4nc5ccccc5c(=O)n4[C@H](C)C(=O)N3[C@@H]1N(C(C)=O)c1ccc(-c3ccc(C#N)cc3)cc12 | – | Active | –
C=CC(C)(C)[C@@]12C[C@H]3c4nc5ccccc5c(=O)n4[C@H](C)C(=O)N3[C@@H]1N(C(C)=O)c1ccc(-c3ccc(-c4ccccc4)cc3)cc12 | – | Active | –
C=CC(C)(C)[C@]12C[C@@H](C(=O)Nc3ccccc3C(=O)OC)N(C(=O)[C@@H](C)NC(=O)OC(C)(C)C)[C@H]1N(C(C)=O)c1ccccc12 | – | – | 27.5
